Consider eleven compounds from patent US10399940B2, “Substituted pyrrolidines and methods of use” (AbbVie S.à.r.l., priority 2016, dated 2019).

For this test, the target named is T1, F508delCFTR (Homo sapiens, UniProt P13569, DEL508-508).
T1 construct: expressed in transfected cells; host or cells: CFBE41o- (human lung derived epithelial cell line), doxycycline-inducible expression
Kind of test: Cell Surface Expression-Horse Radish Peroxidase (CSE-HRP) assay. The test is classed as cell-based. As to conditions: CFBE41o-F508delCFTR-HRP cells; for Maximum % activity (with co-corrector): with co-corrector (2 μM); for Maximum % activity (with co-corrector) / Maximum % activity (without co-corrector): normalized to on-plate positive control, highest concentration 20 μM. The protocol:
Cell Surface Expression-Horse Radish Peroxidase (CSE-HRP) Assay
A cellular assay for measuring the F508delCFTR cell surface expression after correction with test compounds either without or with a co-corrector (2 μM of 3-[(2R,4R)-4-({[1-(2,2-difluoro-1,3-benzodioxol-5-yl)cyclopropyl]carbonyl}amino)-7-methoxy-3,4-dihydro-2H-chromen-2-yl]benzoic acid), was developed in human lung derived epithelial cell line (CFBE41o-) (Veit G et al, (2012) Mol Biol Cell. 23(21): 4188-4202). The development was achieved by expressing the F508delCFTR mutation along with a horseradish peroxidase (HRP) in the fourth exofacial loop, and then measuring the HRP activity using luminescence readout from these cells, CFBE41o-F508delCFTR-HRP, that were incubated overnight with the test corrector compounds, either without or with the co-corrector. For this primary assay, the CFBE41o-F508delCFTR-HRP cells were plated in 384-well plates (Greiner Bio-one; Cat 781080) at 4,000 cells/well along with 0.5 μg/mL doxycycline to induce the F508delCFTR-HRP expression and further incubated at 37° C., 5% CO2 for 72 hours. The test compounds were then added either without or with a co-corrector at the required concentrations and further incubated for 18-24 hours at 33° C. The highest concentration tested was 20 μM with an 8-point concentration response curve using a 3-fold dilution in both the test compound without or with the co-corrector. Three replicate plates were run to determine one EC50. All plates contained negative controls (dimethyl sulfoxide, DMSO) and positive control (2 μM of 3-[(2R,4R)-4-({[1-(2,2-difluoro-1,3-benzodioxol-5-yl)cyclopropyl]carbonyl}amino)-7-methoxy-3,4-dihydro-2H-chromen-2-yl]benzoic acid) as well as on-plate concentration response of the positive control. Post incubation, the plates were washed 5× times with Dulbecco's phosphate buffered saline (DPBS), followed by the addition of the HRP substrate, luminol (50 μL), and measuring the HRP activity using luminescence readout on EnVision® Multilabel Plate Reader (Perkin Elmer; product number 2104-0010). The raw counts from the experiment were analyzed using Accelrys® Assay Explorer v3.3.
Z′ greater than 0.5 was used as passing quality control criteria for the plates.
The Z′ is defined as: 1−[3*SDPositive Control+3*SDNegative Control/Absolute(MeanPositive Control−MeanNegative Control)] wherein “SD” is standard deviation.
The % activity measured at each of the 8 test concentrations of the test compound added either without or with a co-corrector (2 μM of 3-[(2R,4R)-4-({[1-(2,2-difluoro-1,3-benzodioxol-5-yl)cyclopropyl]carbonyl}amino)-7-methoxy-3,4-dihydro-2H-chromen-2-yl]benzoic acid) was normalized to the on-plate positive control using the following formulae: % activity(Test compound without co-corrector)=[(test compound without co-corrector response−DMSO response)/(positive control response−DMSO response)]*100 % activity(Test compound with co-corrector)=[(test compound with co-corrector response−DMSO response)/(positive control response−DMSO response)]*100
The maximum % activity achieved for the test compound either without or with a co-corrector at any tested concentration is presented in Table 1 along with the respective EC50's calculated using the following general sigmoidal curve with variable Hill slope equation (described as Model 42 in the Accelrys® Assay Explorer v3.3 software): y=(a−d)/(1+(x/c)^b)+d
General sigmoidal curve with concentration, response, top, bottom, EC50 and Hill slope. This model describes a sigmoidal curve with an adjustable baseline, a. The equation can be used to fit curves where response is either increasing or decreasing with respect to the independent variable, “x”. • “x” is a concentration of drug under test. • “y” is the response. • “a” is the maximum response, and “d” is the minimum response • “c” is the inflection point (EC50) for the curve. That is, “y” is halfway between the lower and upper asymptotes when x=c. “b” is the slope-factor or Hill coefficient. […]

Where [1] appears, read: test compound without co-corrector, 18-24 hours at 33° C., read-out: EC50 (without co-corrector).
The mark [2] stands for this setting: with co-corrector (2 μM of 3-[(2R,4R)-4-({[1-(2,2-difluoro-1,3-benzodioxol-5-yl)cyclopropyl]carbonyl}amino)-7-methoxy-3,4-dihydro-2H-chromen-2-yl]benzoic acid), read-out: EC50 (with co-corrector).

Read-outs that look alike come from different tables or passages of the source. A value given as a limit tells only on which side of the number the result lay.

T1 sequence (P13569 with tags, fused parts or gaps DEL508-508): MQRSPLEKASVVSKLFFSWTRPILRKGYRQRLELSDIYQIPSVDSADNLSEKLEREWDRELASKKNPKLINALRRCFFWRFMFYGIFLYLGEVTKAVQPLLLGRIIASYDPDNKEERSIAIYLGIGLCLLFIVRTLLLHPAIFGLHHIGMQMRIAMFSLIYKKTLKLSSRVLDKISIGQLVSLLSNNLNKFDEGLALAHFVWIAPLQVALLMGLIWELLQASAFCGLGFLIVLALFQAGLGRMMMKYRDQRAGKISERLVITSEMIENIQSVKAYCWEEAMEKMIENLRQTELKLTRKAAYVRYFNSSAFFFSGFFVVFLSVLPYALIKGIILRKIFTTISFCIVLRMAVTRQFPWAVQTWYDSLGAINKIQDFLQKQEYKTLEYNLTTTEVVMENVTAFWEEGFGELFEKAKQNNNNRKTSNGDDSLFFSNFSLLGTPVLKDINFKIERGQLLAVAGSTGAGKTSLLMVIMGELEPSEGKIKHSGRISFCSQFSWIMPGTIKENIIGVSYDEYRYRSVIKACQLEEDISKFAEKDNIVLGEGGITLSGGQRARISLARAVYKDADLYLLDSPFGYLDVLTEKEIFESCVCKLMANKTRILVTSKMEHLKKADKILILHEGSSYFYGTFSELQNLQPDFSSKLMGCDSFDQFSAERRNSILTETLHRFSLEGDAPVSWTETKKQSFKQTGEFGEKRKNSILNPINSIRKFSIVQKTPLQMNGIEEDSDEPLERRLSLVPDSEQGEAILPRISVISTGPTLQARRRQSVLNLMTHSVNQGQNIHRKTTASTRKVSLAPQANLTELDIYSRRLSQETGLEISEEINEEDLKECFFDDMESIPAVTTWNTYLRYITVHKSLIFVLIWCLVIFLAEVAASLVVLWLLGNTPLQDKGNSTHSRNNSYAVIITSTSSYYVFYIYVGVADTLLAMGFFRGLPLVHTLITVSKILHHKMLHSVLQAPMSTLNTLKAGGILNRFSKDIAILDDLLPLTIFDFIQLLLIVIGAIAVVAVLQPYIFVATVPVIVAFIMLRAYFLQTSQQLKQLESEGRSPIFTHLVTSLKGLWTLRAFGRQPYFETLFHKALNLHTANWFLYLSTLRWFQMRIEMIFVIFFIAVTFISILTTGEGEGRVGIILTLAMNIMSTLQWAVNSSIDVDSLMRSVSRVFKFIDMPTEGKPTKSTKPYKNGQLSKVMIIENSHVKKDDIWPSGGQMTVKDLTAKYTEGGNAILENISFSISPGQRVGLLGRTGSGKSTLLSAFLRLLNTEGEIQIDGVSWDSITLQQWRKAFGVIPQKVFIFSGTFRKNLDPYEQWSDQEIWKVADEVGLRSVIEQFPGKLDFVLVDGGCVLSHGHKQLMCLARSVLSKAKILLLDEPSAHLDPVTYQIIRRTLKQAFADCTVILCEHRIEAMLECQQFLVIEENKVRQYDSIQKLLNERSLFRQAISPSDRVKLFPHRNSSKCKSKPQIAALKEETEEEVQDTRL

Consider `COc1ncc(C2CCC2)cc1CO[C@H]1[C@H](C(C)(C)C)[C@@H](C(=O)O)N(C(=O)C2(C(F)(F)F)CC2)[C@H]1c1cccnc1OC(C)C` [Example 275, (2S,3R,4S,5S)-3-tert-butyl-4-[(5-cyclobutyl-2-methoxypyridin-3-yl)methoxy]-5-{2-[(propan-2-yl)oxy]pyridin-3-yl}-1-[1-(trifluoromethyl)cyclopropane-1-carbonyl]pyrrolidine-2-carboxylic acid], for which the “Maximum % activity (with co-corrector)” value is “++ (≥150 and <350)”; the “Maximum % activity (without co-corrector)” value is on record as “+ (<100)”. Under setting [1], the EC50 was greater than 10 µM. Besides, the EC50 under setting [2] lay within 1 to 10 µM.

On to `Cc1ccccc1[C@H]1[C@@H](OCc2nc3ccccc3n2C)[C@H](C(C)(C)C)[C@@H](C(=O)O)N1C(=O)[C@@H]1CCCCO1` [Example 255, (2S,3R,4S,5S)-3-tert-butyl-4-[(1-methyl-1H-benzimidazol-2-yl)methoxy]-5-(2-methylphenyl)-1-[(2S)-oxane-2-carbonyl]pyrrolidine-2-carboxylic acid], for which the “Maximum % activity (with co-corrector)” value is “++ (≥150 and <350)”; the “Maximum % activity (without co-corrector)” value is given as “+ (<100)”. For the same compound, the EC50 under setting [1] was greater than 10 µM. In addition, the concentration giving a half-maximal response (EC50) under setting [2] is 1 to 10 µM.

`COc1ccc(Cl)cc1COC1[C@@H](c2ccccc2)N(C(=O)C2CCCCC2)[C@@H](C(=O)O)[C@@H]1C(C)(C)C` (mixture of isomers) [Example 3, rac-(2R,3S,5R)-3-tert-butyl-4-[(5-chloro-2-methoxyphenyl)methoxy]-1-(cyclohexanecarbonyl)-5-phenylpyrrolidine-2-carboxylic acid]: the “Maximum % activity (with co-corrector)” value was “+++ (≥350)”; the “Maximum % activity (without co-corrector)” value is “++ (≥100 and <200)”. Also, under setting [1], the 50% effective concentration (EC50) fell in the range of 1 to 10 µM. For the same compound, the 50% effective concentration (EC50) under setting [2] lay within 1 to 10 µM.

`COc1ncc(C(F)(F)F)cc1CO[C@H]1[C@H](C(C)(C)C)[C@@H](C(=O)O)N(C(=O)[C@@H]2CCCCO2)[C@H]1c1ccccc1-c1ccccc1F` [Example 204, (2S,3R,4S,5S)-3-tert-butyl-5-(2′-fluoro[1,1′-biphenyl]-2-yl)-4-{[2-methoxy-5-(trifluoromethyl)pyridin-3-yl]methoxy}-1-[(2S)-oxane-2-carbonyl]pyrrolidine-2-carboxylic acid]: the “Maximum % activity (with co-corrector)” value was “+++ (≥350)” and the “Maximum % activity (without co-corrector)” value is given as “+++ (≥200)”. Under setting [1], the concentration giving a half-maximal response (EC50) is 1 to 10 µM. Besides, the EC50 under setting [2] is less than 1 µM.

For `COc1ncc(C2CCC2)cc1CO[C@H]1[C@H](C(C)(C)C)[C@@H](C(=O)O)N(C(=O)[C@@H]2CCCCO2)[C@H]1c1cc(Cl)ccc1C` [Example 229, (2S,3R,4S,5S)-3-tert-butyl-5-(5-chloro-2-methylphenyl)-4-[(5-cyclobutyl-2-methoxypyridin-3-yl)methoxy]-1-[(2S)-oxane-2-carbonyl]pyrrolidine-2-carboxylic acid], the “Maximum % activity (with co-corrector)” value is “++ (≥150 and <350)”; the “Maximum % activity (without co-corrector)” value is “+ (<100)”. Besides, the EC50 under setting [1] lay in the range of 1 to 10 µM. For the same compound, under setting [2], the EC50 is less than 1 µM.

Turning to `COc1ccc(C(C)(C)C)cc1CO[C@H]1[C@H](C(C)(C)C)[C@@H](C(=O)O)N(C(=O)[C@@H]2CCCO2)[C@H]1c1ccccc1C1CC1` [Example 172, (2S,3R,4S,5S)-3-tert-butyl-4-[(5-tert-butyl-2-methoxyphenyl)methoxy]-5-(2-cyclopropylphenyl)-1-[(2S)-oxolane-2-carbonyl]pyrrolidine-2-carboxylic acid], the “Maximum % activity (with co-corrector)” value is reported as “+++ (≥350)” and the “Maximum % activity (without co-corrector)” value is given as “+++ (≥200)”. Moreover, the half-maximal effective concentration (EC50) under setting [1] fell in the range of 1 to 10 µM. Further, under setting [2], the concentration giving a half-maximal response (EC50) was 1 to 10 µM.

`COc1cc(OC)nc(OC2[C@@H](c3ccccc3)N(C(=O)N(C(C)C)C(C)C)[C@@H](C(=O)O)[C@@H]2C(C)(C)C)n1` (mixture of isomers) [Example 6, rac-(2R,3S,5R)-3-tert-butyl-4-[(4,6-dimethoxypyrimidin-2-yl)oxy]-1-[di(propan-2-yl)carbamoyl]-5-phenylpyrrolidine-2-carboxylic acid]: the “Maximum % activity (with co-corrector)” value is “+++ (≥350)” and the “Maximum % activity (without co-corrector)” value is “+ (<100)”. In addition, the EC50 under setting [1] lay in the range of 1 to 10 µM. Under setting [2], the EC50 lay within 1 to 10 µM.

As for `COc1ccc(C(C)(C)C)cc1CO[C@H]1[C@H](C(C)(C)C)[C@@H](C(=O)O)N(C(=O)[C@@H]2CCC[C@@H](OC)C2)[C@H]1c1ccccc1` [Example 46, (2S,3R,4S,5S)-3-tert-butyl-4-[(5-tert-butyl-2-methoxyphenyl)methoxy]-1-[(1R,3R)-3-methoxycyclohexane-1-carbonyl]-5-phenylpyrrolidine-2-carboxylic acid], the “Maximum % activity (with co-corrector)” value is recorded as “+++ (≥350)” and the “Maximum % activity (without co-corrector)” value is on record as “+++ (≥200)”. Also, under setting [1], the EC50 was less than 1 µM. Besides, the EC50 under setting [2] is less than 1 µM.

On to `COc1ccc(C(F)(F)F)cc1COC1[C@@H](c2cccnc2N(C)C)N(C(=O)C2CCCCC2)[C@@H](C(=O)O)[C@@H]1C(C)(C)C` (mixture of isomers) [Example 15, rac-(2R,3S,5R)-3-tert-butyl-1-(cyclohexanecarbonyl)-5-[2-(dimethylamino)pyridin-3-yl]-4-{[2-methoxy-5-(trifluoromethyl)phenyl]methoxy}pyrrolidine-2-carboxylic acid], for which the “Maximum % activity (with co-corrector)” value is on record as “+++ (≥350)”; the “Maximum % activity (without co-corrector)” value is “++ (≥100 and <200)”. For the same compound, under setting [1], the EC50 lay within 1 to 10 µM. The EC50 under setting [2] was in the range of 1 to 10 µM.

For the compound `COc1ncc(C(C)(C)C)cc1CO[C@H]1[C@H](C(C)(C)C)[C@@H](C(=O)O)N(C(=O)[C@@H]2CCC[C@@H](OC)C2)[C@H]1c1ccccc1` [Example 61, (2S,3R,4S,5S)-3-tert-butyl-4-[(5-tert-butyl-2-methoxypyridin-3-yl)methoxy]-1-[(1R,3R)-3-methoxycyclohexane-1-carbonyl]-5-phenylpyrrolidine-2-carboxylic acid], the “Maximum % activity (with co-corrector)” value was “+++ (≥350)” and the “Maximum % activity (without co-corrector)” value is recorded as “+++ (≥200)”. Besides, the EC50 under setting [1] was less than 1 µM. The EC50 under setting [2] was less than 1 µM.

Consider `COc1ncc(C(F)(F)F)cc1CO[C@H]1[C@H](C(C)(C)C)[C@@H](C(=O)O)N(C(=O)[C@@H]2CCCCO2)[C@H]1c1ccccc1-c1ccc(C(F)(F)F)nc1` [Example 208, (2S,3R,4S,5S)-3-tert-butyl-4-{[2-methoxy-5-(trifluoromethyl)pyridin-3-yl]methoxy}-1-[(2S)-oxane-2-carbonyl]-5-{2-[6-(trifluoromethyl)pyridin-3-yl]phenyl}pyrrolidine-2-carboxylic acid], for which the “Maximum % activity (with co-corrector)” value is recorded as “+++ (≥350)” and the “Maximum % activity (without co-corrector)” value is listed as “+++ (≥200)”. Besides, the EC50 under setting [1] was in the range of 1 to 10 µM. Besides, the EC50 under setting [2] is 1 to 10 µM.
